The numbers were not newly measured in US12504433B2, “Methods, systems and kits for in-pen assays” (BRUKER CELLULAR ANALYSIS, INC., priority 2020, dated 2025), which cites them from elsewhere.

The test system of one data set is Fc of hIgG. The following applies: read-out: Affinity for IgG.

Take “5′-rGp-rGp-rAp-rGp-rGp-fUp-fCp-fCp-rGp-rAp-rAp-rAp-rGp-rGp-rAp-fCp-fUp-fCp-fCp-3′ [CPD 5]”: in the data set on Fc of hIgG, the Kd was 75 nM. “CPD 1: Protein A-AF594, Pierce Recombinant Protein A (ThermoFisher Cat. # 77674)”: the “Affinity for IgG” value at IgG (stated in words) is “nanomolar”. Consider “DCAWHLGELVWCT [CPD 4, Asp Cys Ala Trp His Leu Gly Glu Leu Val Trp Cys Thr]”, for which, on IgG (Fc, read-out: Affinity for IgG), the Kd is 100 nM.
